From PMC8637440, “Structural Modifications Yield Novel Insights Into the Intriguing Pharmacodynamic Potential of Anti-inflammatory Nitro-Fatty Acids” (Frontiers in Pharmacology, 2021)
Values joined by “and” are separate entries in the source; they are usually repeats but may differ in a detail not shown here. Equal entries are not always repeated.

Key:
5-LO = target: T1, 5-LO (Homo sapiens, UniProt P09917); assay: 5-LO product formation (LTB4, 5-HETE) in intact PMNL, A23187 + 20 µM AA; assay type: cell-based; details: 15 min preincubation, A23187 2.5 µM + 20 µM AA, n.i. = no inhibition observed; for PMNL (20 µM AA) 5-HETE IC50 / PMNL (20 µM AA) LTB4 IC50: intact PMNL
T1 construct: endogenous in cells; host or cells: human PMNL from buffy coats
T1 sequence (P09917 1-674): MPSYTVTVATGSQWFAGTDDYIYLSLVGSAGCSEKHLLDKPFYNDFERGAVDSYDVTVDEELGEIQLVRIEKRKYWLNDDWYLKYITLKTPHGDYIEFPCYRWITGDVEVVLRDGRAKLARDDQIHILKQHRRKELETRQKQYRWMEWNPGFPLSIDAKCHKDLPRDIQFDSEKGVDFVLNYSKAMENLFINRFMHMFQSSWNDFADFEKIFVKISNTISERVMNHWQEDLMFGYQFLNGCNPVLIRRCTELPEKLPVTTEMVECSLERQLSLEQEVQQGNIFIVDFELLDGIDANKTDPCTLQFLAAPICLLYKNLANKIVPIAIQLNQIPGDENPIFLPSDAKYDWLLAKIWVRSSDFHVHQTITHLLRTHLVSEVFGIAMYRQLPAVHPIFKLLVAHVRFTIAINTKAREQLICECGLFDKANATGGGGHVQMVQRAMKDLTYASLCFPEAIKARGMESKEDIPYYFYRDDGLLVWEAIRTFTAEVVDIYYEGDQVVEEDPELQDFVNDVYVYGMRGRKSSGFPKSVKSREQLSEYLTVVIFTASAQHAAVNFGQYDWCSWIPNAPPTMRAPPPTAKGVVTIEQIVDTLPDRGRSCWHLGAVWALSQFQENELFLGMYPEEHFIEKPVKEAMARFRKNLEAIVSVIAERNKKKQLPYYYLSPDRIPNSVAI
Protocol: (§1) Buffy coats from different donors of different blood types were commercially obtained from DRK Blutspendedienst Baden-Württemberg Institute Frankfurt. Donors have given their written consent. […] Following separation, the supernatant was transferred very gently to new 50-ml tubes containing lymphocyte separation medium (LSM) and centrifuged for 10 min at 800 ×g at RT with the centrifuge brake turned off. Afterwards, the supernatant was decanted carefully to discard the platelets and monocytes. The PMNL were washed with 1× PBS before the residual erythrocytes were lysed in two cycles: the cell pellet was resuspended with 10 ml H2O and vortexed for 45 s, and lysis was stopped with 40 ml 1 × PBS. After 10-min centrifugation at 200 ×g at RT, the cycle was repeated once. The supernatant was aspirated, the cell pellet resuspended in 5 ml PBS/glucose and initially separated PMNL preparations with different blood types were finally pooled to gain a sufficient number of cells. […] The enzyme was diluted in PBS/EDTA/ATP, transferred into 5-ml glass tubes, and stored on ice. […] The reaction was stopped by placing the glass tubes on ice. The supernatants were transferred to 1.5 ml reaction tubes and stored at −80°C before LC-MS (liquid chromatography and mass spectrometry) analysis of LTB4 and HETEs as described in 2.6 at the Institute of Pharmacology, Goethe University, University Hospital, Germany. The lipid mediators LTB4, hydroxyeicosatetraenoic acids, 5(S)-HETE, 12(S)-HETE, 15(S)-HETE and 20-HETE were analyzed using liquid chromatography tandem-mass spectroscopy (LC-MS/MS). The LC-MS/MS system consisted of a 5500 QTrap mass spectrometer (Sciex, Darmstadt, Germany), operating in negative ESI mode, an Agilent 1200 HPLC system (Agilent, Waldbronn, Germany) and an HTC Pal autosampler (Chromtech, Idstein, Germany). Sample extraction of LTB4 and HETEs were performed using liquid-liquid extraction: 200 µl of the sample were gently mixed with 20 µl of methanol and 20 µl of internal standard solution and extracted twice with 600 µl ethyl acetate. […] Working solutions of all analytes were prepared in methanol containing 0.1% BHT. The calibration standards were prepared by further dilution of the working standards. […] The residues were reconstituted in 50 µl of methanol:water:BHT (50:50:10^−4, v/v/v) prior to injection into the LC-MS/MS system. Chromatographic separation was achieved using a Gemini NX C18 column (150 mm × 2 mm ID, 5 µm, Phenomenex, Aschaffenburg, Germany) with a precolumn of the same material. A linear gradient was employed at a flow rate of 0.5 ml/min and a total run time of 17.5 min. Mobile phases were A water:ammonia (100:0.05, v/v) and B acetonitrile:ammonia (100:0.05, v/v). […] All data were acquired using Analyst software v1.6.2 and quantitation was performed by MultiQuant software v3.0 (both Sciex, Darmstadt, Germany) using the internal standard method (isotope-dilution mass spectrometry). Calibration curves were calculated by linear regression with 1/x.

12-LO = target: T2, 12-LO (Homo sapiens, UniProt P18054); assay: 12-HETE formation in intact PMNL preparations, A23187 + 20 µM AA; assay type: cell-based; details: 15 min preincubation, A23187 2.5 µM + 20 µM AA, n.i. = no inhibition observed
T2 construct: endogenous in cells; host or cells: platelet impurities in human PMNL preparations
T2 sequence (P18054 1-663): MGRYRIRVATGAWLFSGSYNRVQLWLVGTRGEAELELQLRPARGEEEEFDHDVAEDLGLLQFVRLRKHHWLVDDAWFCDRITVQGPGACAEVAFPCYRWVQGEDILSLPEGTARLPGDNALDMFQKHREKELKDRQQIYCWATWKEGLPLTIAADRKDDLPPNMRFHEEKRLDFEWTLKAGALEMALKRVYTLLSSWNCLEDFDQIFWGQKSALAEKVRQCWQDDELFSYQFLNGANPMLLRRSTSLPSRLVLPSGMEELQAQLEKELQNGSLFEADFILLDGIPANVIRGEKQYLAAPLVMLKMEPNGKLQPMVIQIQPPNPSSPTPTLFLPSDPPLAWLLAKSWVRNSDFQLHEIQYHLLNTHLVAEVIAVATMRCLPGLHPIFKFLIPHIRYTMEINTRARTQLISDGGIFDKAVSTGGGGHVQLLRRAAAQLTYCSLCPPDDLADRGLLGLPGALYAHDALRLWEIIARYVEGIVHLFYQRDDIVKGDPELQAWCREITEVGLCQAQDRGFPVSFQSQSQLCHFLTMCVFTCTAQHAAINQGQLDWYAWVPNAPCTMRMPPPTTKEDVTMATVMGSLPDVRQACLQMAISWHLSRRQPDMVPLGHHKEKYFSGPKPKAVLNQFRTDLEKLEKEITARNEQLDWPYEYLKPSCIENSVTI
Protocol: as §1

[1] = PMNL (20 µM AA) 5-HETE IC50, intact PMNL
[2] = PMNL (20 µM AA) LTB4 IC50, intact PMNL

For `CCC=C(CCCCCCCC(=O)O)[N+](=O)[O-]` [12.9.9, 9-nitro-dodec-9-enoic acid], the “PMNL (20 µM AA) 5-HETE IC50” value (5-LO) was “n.i”, the “PMNL (20 µM AA) LTB4 IC50” value (5-LO) was “n.i” and the “PMNL (20 µM AA) 12-HETE IC50” value (12-LO) was “n.i”.

With `CCCCC=C(CCCCCCCC(=O)O)[N+](=O)[O-]` [14.9.9, 9-nitro-tetradec-9-enoic acid] the “PMNL (20 µM AA) 5-HETE IC50” value (5-LO) was “n.i”, the “PMNL (20 µM AA) LTB4 IC50” value (5-LO) was “n.i” and the “PMNL (20 µM AA) 12-HETE IC50” value (12-LO) was “n.i”.

In the case of `CCCCCCC=C(CCCCCCCC(=O)O)[N+](=O)[O-]` [16.9.9, 9-nitro-hexadec-9-enoic acid], the IC50 (5-LO; [1]) is reported as 10.8 ± 1.1 µM, the IC50 (5-LO; [2]) is reported as 12 ± 1.1 µM and the “PMNL (20 µM AA) 12-HETE IC50” value (12-LO) is reported as “n.i”.

For `CCCCCCCCCCCCCC=C(CCC(=O)O)[N+](=O)[O-]` [18.4.4, 4-nitro-octadec-4-enoic acid], the IC50 (5-LO; [1]) was 9.2 ± 1.2 µM, the IC50 (5-LO; [2]) was 10.6 ± 1.1 µM and the “PMNL (20 µM AA) 12-HETE IC50” value (12-LO) was “n.i”.

In the case of `CCCCCCCCCCCCC=C(CCCC(=O)O)[N+](=O)[O-]` [18.5.5, 5-nitro-octadec-5-enoic acid], the IC50 (5-LO; [1]) is reported as 7.5 ± 1.1 µM, the IC50 (5-LO; [2]) is reported as 9 ± 1.1 µM and the “PMNL (20 µM AA) 12-HETE IC50” value (12-LO) is reported as “n.i”.

In the case of `CCCCCCCCCCCC=C(CCCCC(=O)O)[N+](=O)[O-]` [18.6.6, 6-nitro-octadec-6-enoic acid], the IC50 (5-LO; [1]) is reported as 9.1 ± 1.2 µM, the IC50 (5-LO; [2]) is reported as 7.7 ± 1.1 µM and the “PMNL (20 µM AA) 12-HETE IC50” value (12-LO) is reported as “n.i”.

For `CCCCCCCCCCCC(=CCCCCC(=O)O)[N+](=O)[O-]` [18.6.7, 7-nitro-octadec-6-enoic acid], the IC50 (5-LO; [1]) was 11.2 ± 1.2 µM, the IC50 (5-LO; [2]) was 8.3 ± 1.1 µM and the “PMNL (20 µM AA) 12-HETE IC50” value (12-LO) was “n.i”.

For `CCCCCCCCCCC=C(CCCCCC(=O)O)[N+](=O)[O-]` [18.7.7, 7-nitro-octadec-7-enoic acid], the IC50 (5-LO; [1]) was 4.9 ± 1.1 µM, the IC50 (5-LO; [2]) was 4.3 ± 1.1 µM and the “PMNL (20 µM AA) 12-HETE IC50” value (12-LO) was “n.i”.

For `CCCCCCCCCC=C(CCCCCCC(=O)O)[N+](=O)[O-]` [18.8.8, 8-nitro-octadec-8-enoic acid], the IC50 (5-LO; [1]) was 6.6 ± 1.1 µM, the IC50 (5-LO; [2]) was 7.9 ± 1.1 µM and the “PMNL (20 µM AA) 12-HETE IC50” value (12-LO) was “n.i”.

In the case of `CCCCCCCCCC(=CCCCCCCC(=O)O)[N+](=O)[O-]` [18.8.9, 9-nitro-octadec-8-enoic acid], the IC50 (5-LO; [1]) is reported as 7.7 ± 1.2 µM, the IC50 (5-LO; [2]) is reported as 5.7 ± 1.2 µM and the “PMNL (20 µM AA) 12-HETE IC50” value (12-LO) is reported as “n.i”.

`CCCCCCCCC=C(CCCCCCCC(=O)O)[N+](=O)[O-]` [18.9.9, 9-nitro-octadec-9-enoic acid] was tested, and the IC50 (5-LO; [1]) was 5.9 µM and 6.1 µM, the IC50 (5-LO; [2]) was 4.8 ± 1.8 µM and the “PMNL (20 µM AA) 12-HETE IC50” value (12-LO) was “n.i”.

With `CCCCCCCCC(=CCCCCCCCC(=O)O)[N+](=O)[O-]` [18.9.10, 10-nitro-octadec-9-enoic acid] the IC50 (5-LO; [1]) was 6.9 ± 1.1 µM, the IC50 (5-LO; [2]) was 5 ± 1.1 µM and the “PMNL (20 µM AA) 12-HETE IC50” value (12-LO) was “n.i”.

With `CCCCCCCC=C(CCCCCCCCC(=O)O)[N+](=O)[O-]` [18.10.10, 10-nitro-octadec-10-enoic acid] the IC50 (5-LO; [1]) was 6 ± 1.2 µM, the IC50 (5-LO; [2]) was 7 ± 1.1 µM and the “PMNL (20 µM AA) 12-HETE IC50” value (12-LO) was “n.i”.

In the case of `CCCCCCC=C(CCCCCCCCCC(=O)O)[N+](=O)[O-]` [18.11.11, 11-nitro-octadec-11-enoic acid], the IC50 (5-LO; [1]) is reported as 5.7 ± 1.1 µM, the IC50 (5-LO; [2]) is reported as 5.9 ± 1.1 µM and the “PMNL (20 µM AA) 12-HETE IC50” value (12-LO) is reported as “n.i”.

With `CCCCCCCCCCC=C(CCCCCCCC(=O)O)[N+](=O)[O-]` [20.9.9, 9-nitro-eicos-9-enoic acid] the IC50 (5-LO; [1]) was 4.7 ± 1.1 µM, the IC50 (5-LO; [2]) was 4.2 ± 1.1 µM and the “PMNL (20 µM AA) 12-HETE IC50” value (12-LO) was “n.i”.

`CCCCCCCC/C=C\CCCCCCCC(=O)O` [OA, oleic acid, reference compound] was tested, and the “PMNL (20 µM AA) 5-HETE IC50” value (5-LO) was “n.i”, the “PMNL (20 µM AA) LTB4 IC50” value (5-LO) was “n.i” and the “PMNL (20 µM AA) 12-HETE IC50” value (12-LO) was “not affected and n.i”.
